The structures appear in SMILES notation.

One compound from patent publication US8957106B2, “Iminosugar treatment of tumors” (The Chancellor, Masters and Scholars of the University of …, priority 2007, dated 2015) can be followed below.

The subject of one assay is B16F10 cells. The assay can be described thus: Growth rate by Trypan blue exclusion, drug scheduling and progenies. The format is cell-based, murine. The procedure: The standard methanethiosulfonate (MTS)-3-(4,5-dimethylthiazol-2-yl)-5-(3-carboxymethoxyphenyl)-2-(4-sulphophenyl)-2H-tetrazolium inner salt solution assay was performed in order to examine the cytotoxic/cytostatic effect of GC2 on melanoma cells. Briefly, 7.5×10^3 cells were seeded in 96-well microtiter plates (Nunc). After an overnight incubation, serial dilutions of GC2 or DTIC were added in triplicate to a final volume of 100 μl. The blank was represented by a culture medium without cells containing the highest GC2 or DTIC concentration. After 24 h of incubation 20 μl MTS was added to each well and all samples were incubated for 3 h at 37° C. An absorbance of each well was read at 450 nm in a microplate reader. A percentage of cell viability was calculated considering that 100% cell viability was represented by an absorbance of untreated samples (blank absorbance). Alternatively, the number of viable cells was determined by Trypan blue exclusion test. Melanoma cells treated with GC2 were trypsinized and cells negative for blue staining (viable cells) were counted using a hemocytometer.
In order to be successful, chemotherapy schedule can be set based on a type of targeted cells, a rate, at which the cells divide, and a time, at which a given drug is likely to be effective. Melanoma cells have versatile mechanisms to survive treatments with most chemotherapeutical drugs. Whether a specific scheduling of GC2 therapy is important was investigated by studying how a growth rate of melanoma cells is affected by incubation with a single dose of GC2 for a prolonged time period and with multiple GC2 doses freshly added every 24 h. Because of its high proliferation rate, a metastatic cell line B16F10 was selected for these experiments. The cells were cultured for 72 h under the following conditions: 1) in the absence of GC2 (control sample-C), 2) with a single GC2 dose of 6.0 μM (sample-S), and 3) with multiple GC2 doses of 6.0 μM freshly added every 24 h ([…]). A number of viable cells was determined by Trypan blue exclusion test and a growth rate was calculated in order to estimate an anti-proliferative effect of GC2. Under normal drug-free conditions, B16F10 cells approximately double their number every 24 h (FIG. 4A). Incubation with a single dose of GC2 decreased the growth rate from 2.29 to 1.26 for 24 h incubation and from 7.26 to 3.7 for 72 h incubation. […] Cells treated with GC2 freshly added every 24 h had the lowest growth rate of 2.02.
Equal numbers of B16F10 cells previously cultured for 72 h 1) without GC2 (C), 2) in the presence of a single GC2 dose of 6 μM (S) or 3) multiple GC2 doses of 6 μM freshly added every 24 h (S*) were further incubated either without GC2 (0 μM) or with a lower GC2 concentration (3 μM). At the end of a 48 h incubation period a number of viable cells was determined by Trypan blue exclusion test and a percentage of cell growth was calculated considering a cell number cultured with 3 μM of GC2 for 48 h to be 100%. Cells cultured with a single dose of GC2 for 72 h followed by 48 h without the drug proliferated at a rate of 99%. The rate decreased to 70% after the additional 48 h incubation of these cells in the presence of 3 μM GC2 (FIG. 4C). […] The lowest growth rate, (5%) was registered for the cells previously exposed to multiple doses of freshly added drug for 72 h and then further grown for 48 h in the presence of 3 μM GC2.

Assay [1] deals with MMP-2 secreted by T11 glioblastoma multiform cells. As to the kind of experiment: MMP analysis by SDS-PAGE gelatin zymography. It counts as cell-based. As to conditions: 20 h. The procedure: T11 cells were grown in a complete DMEM medium until they reached 80% confluency. The cells were washed using DMEM medium without serum and incubated for 20 h with various concentrations of GC2 shown in preliminary experiments not to affect cell viability. The culture medium was collected, centrifuged at 2000 rpm, for 5 min, to remove the cells in suspension. The culture medium was further concentrated five times by ultrafiltration on centricon membranes (molecular weight cut off 30,000 from Milipore). Three parts of medium containing equal amounts of protein (20 μg) were mixed with one part of Laemmnli buffer without reducing agent. Samples were applied on a gel of 8% polyacrylamide impregnated with 0.5 mg/ml denaturated type I collagen (gelatin) and separated electrophoretically. […]
To investigate if GC2 treatment interferes with secretion of MMPs a glioblastoma multiform cell line, T11 previously tested for its capacity to secrete MMP-2 was used. Cells were cultured for 20 h in the presence of different concentrations of GC2, established by preliminary experiments to be nontoxic for this cell line, and medium was concentrated and analyzed by Sodium Dodecyl Sulphate PolyAcrylamide Gel Electrophoresis (SDS-PAGE) gelatin zymography. […]

In the next assay the test system is SKMel28 cells. As to the kind of experiment: Acidic vesicular organelles, Lysotracker Red vital staining. It counts as cell-based. As to conditions: SKMel28, 6 μM, 3 h and 8 h. The procedure: Tumor cells were cultured 24 h on cover glasses, treated with GC2, and processed as described in Negroiu, G., et al. J. Biol. Chem. 278, 27035-27042, 2003. The acidic vesicular compartments were detected following incubation of live cells GC2 treated with Lysotracker® Red (0.125 μl/ml culture medium) for 30 min at 37° C. Fixed cells were incubated with the following primary antibodies: mouse anti-EEA1 (1:100), human-CD107A (anti-Lamp1) (1:50), a mouse anti-α tubulin (1:200) followed by an appropriate Alexa Fluor® 488 conjugated secondary antibodies (1:400) or with Alexa Fluor® 594 phalloidin. Finally, nuclei of fixed cells were stained with 5 mM Hoechst dye 33342. Cells were washed three times with PBS and mounted in Vectashield® mounting medium.
Acidic compartments of untreated and GC2-treated tumor cells were differentiated using a lysosomotropic agent LysoTracker® Red (LT), a marker for tracking acidic organelles in live cells. These probes can be used to investigate the acidification of lysosomes and alteration of their function or trafficking that occur in the cell. In untreated SKMel28 cells (FIG. 5Aa) the LT probe has a moderate fluorescence as fine punctate structures distributed within the entire cell cytoplasm and occasionally at the cell periphery.

Consider `CC(=O)O.CCCCCCCCCN1[C@@H](CO)[C@@H](O)[C@H](O)[C@@H]1CCCCCCCC` [GC2, (2S,3R,4R,5S)-3,4-dihydroxy-N-nonyl-5-octyl-2 hydroxymethylpyrrolidinium acetate], for which, in the assay with B16F10 cells (Mus musculus, B16-F10, multiple 6 μM doses 72 h, then 48 h with 3 μM GC2, read-out: growth rate of progenies (% of control growth)), the activity at 3 µM is 5%. Also, the activity at 6 µM in the assay on B16F10 cells (Mus musculus, B16-F10, single 6 μM dose 72 h, then 48 h without drug, read-out: proliferation rate of progenies (% of control growth)) worked out at 99%. For the same compound, the “proliferation rate of progenies (% of control growth)” value was 43% in the assay with B16F10 cells (multiple 6 μM doses 72 h, then 48 h without drug) and 70% in the assay on B16F10 cells (single 6 μM dose 72 h, then 48 h with 3 μM GC2). Moreover, the “growth rate (ratio of cell number to initial cell number)” value with B16F10 cells (multiple 6.0 μM doses freshly added every 24 h, 72 h, control 7.26) is given as 2.02; in the assay on B16F10 cells (single dose 6.0 μM, 24 h incubation, control 2.29), 1.26; in the assay on B16F10 cells (single dose 6.0 μM, 72 h incubation, control 7.26) it was 3.7. In addition, in assay [1] (0.65 μM, 1.25 μM, 2.5 μM and 5 μM), the “intensity of the MMP-2 band” value was “decreasing in a concentration dependent manner”. In assay [1] (5 μM), the MMP-2 secretion entry was “total inhibition”. In addition, in the assay on SKMel28 cells, the “Lysotracker Red probe distribution (acidic vesicles)” value is listed as “accumulates in large, bright red fluorescent vesicles in a time dependent manner”.
